Measurements published in PubChem BioAssay AID1918958 (Molecular Pharmacology Branch, DTP, NCI, 2023).

System: NCI-H196 complex spheroid viability
Test: Anticancer human tumor NCI-H196 cell line growth inhibition [LSD1];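 further: spheroids exposed to agents for 7 days before readout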;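 on viability, T/C: 100% = DMSO vehicle control viability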
Details: for IC50: curve of first compound; for viability, T/C: stronger effect = lower value
How it was run: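 Drug combinations with the LSD1 inhibitor iadademstat tested on tumor cells co-cultured as spheroids with endothelial cells and mesenchymal stem cells. Concentrations descended in half-log increments from clinical Cmax or 10 microM.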

[1] = second compound 0.1 µM, first compound 0.00316 µM
[2] = second compound 0.1 µM, first compound 0.01 µM
[3] = second compound 0.1 µM, first compound 0.0316 µM
[4] = second compound 0.1 µM, first compound 0.1 µM
[5] = second compound 0.1 µM, first compound 0.316 µM
[6] = second compound 0.1 µM, first compound 1 µM
[7] = second compound 0.316 µM, first compound 0.00316 µM
[8] = second compound 0.316 µM, first compound 0.01 µM
[9] = second compound 0.316 µM, first compound 0.0316 µM
[10] = second compound 0.316 µM, first compound 0.1 µM
[11] = second compound 0.316 µM, first compound 0.316 µM
[12] = second compound 0.316 µM, first compound 1 µM
[13] = second compound 1 µM, first compound 0.00316 µM
[14] = second compound 1 µM, first compound 0.01 µM
[15] = second compound 1 µM, first compound 0.0316 µM
[16] = second compound 1 µM, first compound 0.1 µM
[17] = second compound 1 µM, first compound 0.316 µM
[18] = second compound 1 µM, first compound 1 µM
[19] = second compound 3.16 µM, first compound 0.00316 µM
[20] = second compound 3.16 µM, first compound 0.01 µM
[21] = second compound 3.16 µM, first compound 0.0316 µM
[22] = second compound 3.16 µM, first compound 0.1 µM
[23] = second compound 3.16 µM, first compound 0.316 µM
[24] = second compound 3.16 µM, first compound 1 µM
[25] = second compound 10 µM, first compound 0.00316 µM
[26] = second compound 10 µM, first compound 0.01 µM
[27] = second compound 10 µM, first compound 0.0316 µM
[28] = second compound 10 µM, first compound 0.1 µM
[29] = second compound 10 µM, first compound 0.316 µM
[30] = second compound 10 µM, first compound 1 µM

**Q.** How did the IC50 (second compound 0.1 µM) turn out when `CC1COCCN1c1cc(-c2ccnn2C)c2ccnc(-c3ccn[nH]3)c2n1` (stereo not given) + NC1CC1c1ccc(-c2cccc(O)c2)cc1 was run?
**A.** Its IC50 is 368 nM.

**Q.** What about the IC50 (second compound 0.316 µM) of the same molecule?
**A.** Its IC50 is 176 nM.

**Q.** And the IC50 (second compound 1 µM)?
**A.** The IC50 was 96.1 nM.

**Q.** And the IC50 (second compound 3.16 µM)?
**A.** The IC50 was 212 nM.

**Q.** What about the IC50 (second compound 10 µM) of the same molecule?
**A.** Its IC50 is 168 nM.

**Q.** What about the viability, T/C [1] of the same molecule?
**A.** The viability, T/C was 79.2%.

**Q.** What about the viability, T/C [2] of the same molecule?
**A.** The viability, T/C was 74.4%.

**Q.** What about the viability, T/C [3] of the same molecule?
**A.** The viability, T/C was 72.5%.

**Q.** And the viability, T/C [4]?
**A.** Its viability, T/C is 57.1%.

**Q.** What about the viability, T/C [5] of the same molecule?
**A.** Its viability, T/C is 49.8%.

**Q.** And the viability, T/C [6]?
**A.** Its viability, T/C is 43.2%.

**Q.** And the viability, T/C [7]?
**A.** Its viability, T/C is 72.4%.

**Q.** And the viability, T/C [8]?
**A.** Its viability, T/C is 78.7%.

**Q.** And the viability, T/C [9]?
**A.** The viability, T/C was 71.4%.

**Q.** And the viability, T/C [10]?
**A.** Its viability, T/C is 55.4%.

**Q.** What about the viability, T/C [11] of the same molecule?
**A.** Its viability, T/C is 45.4%.

**Q.** And the viability, T/C [12]?
**A.** The viability, T/C was 38.4%.

**Q.** And the viability, T/C [13]?
**A.** The viability, T/C was 85.6%.

**Q.** And the viability, T/C [14]?
**A.** Its viability, T/C is 87.6%.

**Q.** What about the viability, T/C [15] of the same molecule?
**A.** Its viability, T/C is 65.5%.

**Q.** What about the viability, T/C [16] of the same molecule?
**A.** Its viability, T/C is 51%.

**Q.** And the viability, T/C [17]?
**A.** Its viability, T/C is 51.4%.

**Q.** What about the viability, T/C [18] of the same molecule?
**A.** Its viability, T/C is 45.9%.

**Q.** And the viability, T/C [19]?
**A.** Its viability, T/C is 86.6%.

**Q.** And the viability, T/C [20]?
**A.** Its viability, T/C is 83.5%.

**Q.** And the viability, T/C [21]?
**A.** The viability, T/C was 70.9%.

**Q.** What about the viability, T/C [22] of the same molecule?
**A.** The viability, T/C was 56.1%.

**Q.** And the viability, T/C [23]?
**A.** The viability, T/C was 47.7%.

**Q.** What about the viability, T/C [24] of the same molecule?
**A.** Its viability, T/C is 41.5%.

**Q.** And the viability, T/C [25]?
**A.** The viability, T/C was 89.4%.

**Q.** What about the viability, T/C [26] of the same molecule?
**A.** The viability, T/C was 81.2%.

**Q.** And the viability, T/C [27]?
**A.** The viability, T/C was 79.3%.

**Q.** What about the viability, T/C [28] of the same molecule?
**A.** The viability, T/C was 55.2%.

**Q.** What about the viability, T/C [29] of the same molecule?
**A.** The viability, T/C was 43.5%.

**Q.** What about the viability, T/C [30] of the same molecule?
**A.** Its viability, T/C is 40.9%.

**Q.** Which results are given for `COc1ccc([C@@H](O)c2cc(-c3ncnc4cc(N5CCOCC5)ccc34)c(F)cc2Cl)nn1` + NC1CC1c1ccc(-c2cccc(O)c2)cc1?
**A.** IC50 (second compound 0.1 µM): > 10000 nM; IC50 (second compound 0.316 µM): > 10000 nM; IC50 (second compound 1 µM): > 10000 nM; IC50 (second compound 3.16 µM): > 10000 nM; IC50 (second compound 10 µM): 6480 nM; viability, T/C [3]: 106%; viability, T/C [4]: 98.6%; viability, T/C [5]: 79.1%; viability, T/C [6]: 68.4%; viability, T/C (second compound 0.1 µM, first compound 3.16 µM): 64.2%; viability, T/C (second compound 0.1 µM, first compound 10 µM): 52%; viability, T/C [9]: 92%; viability, T/C [10]: 90%; viability, T/C [11]: 82.7%; viability, T/C [12]: 71%; viability, T/C (second compound 0.316 µM, first compound 3.16 µM): 60.7%; viability, T/C (second compound 0.316 µM, first compound 10 µM): 50%; viability, T/C [15]: 102%; viability, T/C [16]: 94.7%; viability, T/C [17]: 90%; viability, T/C [18]: 69.4%; viability, T/C (second compound 1 µM, first compound 3.16 µM): 62.2%; viability, T/C (second compound 1 µM, first compound 10 µM): 50.1%; viability, T/C [21]: 94.9%; viability, T/C [22]: 105%; viability, T/C [23]: 90.8%; viability, T/C [24]: 68.2%; viability, T/C (second compound 3.16 µM, first compound 3.16 µM): 59.9%; viability, T/C (second compound 3.16 µM, first compound 10 µM): 48.2%; viability, T/C [27]: 103%; viability, T/C [28]: 100%; viability, T/C [29]: 86.2%; viability, T/C [30]: 72.8%; viability, T/C (second compound 10 µM, first compound 3.16 µM): 59.2%; viability, T/C (second compound 10 µM, first compound 10 µM): 44.7%

**Q.** Which IC50 (second compound 0.1 µM) does the source give for `O=C(C=Cn1cnc(-c2cc(C(F)(F)F)cc(C(F)(F)F)c2)n1)NNc1cnccn1` + NC1CC1c1ccc(-c2cccc(O)c2)cc1 here?
**A.** Its IC50 is < 3.16 nM.

**Q.** And the IC50 (second compound 0.316 µM)?
**A.** Its IC50 is < 3.16 nM.

**Q.** And the IC50 (second compound 1 µM)?
**A.** The IC50 was < 3.16 nM.

**Q.** And the IC50 (second compound 3.16 µM)?
**A.** The IC50 was < 3.16 nM.

**Q.** What about the IC50 (second compound 10 µM) of the same molecule?
**A.** The IC50 was < 3.16 nM.

**Q.** What about the viability, T/C [1] of the same molecule?
**A.** The viability, T/C was 32.5%.

**Q.** What about the viability, T/C [2] of the same molecule?
**A.** Its viability, T/C is 27.1%.

**Q.** And the viability, T/C [3]?
**A.** The viability, T/C was 19.8%.

**Q.** And the viability, T/C [4]?
**A.** The viability, T/C was 14.6%.

**Q.** What about the viability, T/C [5] of the same molecule?
**A.** The viability, T/C was 10.4%.

**Q.** What about the viability, T/C [6] of the same molecule?
**A.** The viability, T/C was 7.16%.

**Q.** And the viability, T/C [7]?
**A.** The viability, T/C was 33.1%.

**Q.** What about the viability, T/C [8] of the same molecule?
**A.** The viability, T/C was 25.6%.

**Q.** And the viability, T/C [9]?
**A.** The viability, T/C was 20.7%.

**Q.** What about the viability, T/C [10] of the same molecule?
**A.** Its viability, T/C is 12.4%.

**Q.** And the viability, T/C [11]?
**A.** The viability, T/C was 10.7%.

**Q.** What about the viability, T/C [12] of the same molecule?
**A.** The viability, T/C was 8.26%.

**Q.** And the viability, T/C [13]?
**A.** Its viability, T/C is 31.3%.

**Q.** What about the viability, T/C [14] of the same molecule?
**A.** Its viability, T/C is 31.5%.

**Q.** What about the viability, T/C [15] of the same molecule?
**A.** Its viability, T/C is 19.6%.

**Q.** What about the viability, T/C [16] of the same molecule?
**A.** The viability, T/C was 12.1%.

**Q.** And the viability, T/C [17]?
**A.** Its viability, T/C is 10.6%.

**Q.** What about the viability, T/C [18] of the same molecule?
**A.** The viability, T/C was 9.55%.

**Q.** And the viability, T/C [19]?
**A.** Its viability, T/C is 45.6%.

**Q.** And the viability, T/C [20]?
**A.** Its viability, T/C is 31.5%.

**Q.** What about the viability, T/C [21] of the same molecule?
**A.** The viability, T/C was 15.9%.

**Q.** What about the viability, T/C [22] of the same molecule?
**A.** The viability, T/C was 14%.

**Q.** And the viability, T/C [23]?
**A.** The viability, T/C was 10.2%.

**Q.** And the viability, T/C [24]?
**A.** The viability, T/C was 10.3%.

**Q.** What about the viability, T/C [25] of the same molecule?
**A.** Its viability, T/C is 36.2%.

**Q.** And the viability, T/C [26]?
**A.** Its viability, T/C is 29.2%.

**Q.** And the viability, T/C [27]?
**A.** Its viability, T/C is 18.3%.

**Q.** What about the viability, T/C [28] of the same molecule?
**A.** Its viability, T/C is 15.9%.

**Q.** What about the viability, T/C [29] of the same molecule?
**A.** The viability, T/C was 12.4%.

**Q.** What about the viability, T/C [30] of the same molecule?
**A.** The viability, T/C was 11.9%.
